Patent US20040009568A1, “Catalytic domains of the human hepatocyte growth factor receptor tyrosine kinase, and materials and methods for identification of inhibitors thereof” (priority 2001, published 2004)

Experiments:
Assay type in all cases: biochemical
[1] = target: T1, unphosphorylated HGFR (Homo sapiens, UniProt P08581); test: Coupled enzymatic (PK/LDH) kinase assay, unphosphorylated HGFR
T1 construct: The cDNA corresponding to residues 1051-1349 of the HGFR kinase catalytic domain (HGFRkd) was cloned into a pFastBac plasmid; added N-terminal methionine (start codon of the NcoI site) (N); made in house; host or cells: Sf9 insect cells, recombinant baculovirus (pFastBac-NcoI)
T1 sequence (P08581 1051-1349): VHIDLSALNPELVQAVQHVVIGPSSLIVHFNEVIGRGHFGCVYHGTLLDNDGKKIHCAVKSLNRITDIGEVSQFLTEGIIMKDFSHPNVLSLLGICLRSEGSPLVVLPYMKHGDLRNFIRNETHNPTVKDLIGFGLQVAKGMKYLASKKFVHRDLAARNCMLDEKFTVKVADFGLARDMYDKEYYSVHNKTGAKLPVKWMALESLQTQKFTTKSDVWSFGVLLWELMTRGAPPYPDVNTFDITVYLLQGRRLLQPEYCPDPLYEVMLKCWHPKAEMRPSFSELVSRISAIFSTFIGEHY
Description: (§1) A coupled enzymatic assay format was used to measure both HGFR and phospho-HGFR(PHGFR) activities. The kinase-catalyzed production of ADP from ATP that accompanies phosphate transfer to the random copolymer poly(Glu4Tyr) or peptide substrate was coupled to the oxidation of NADH through the activities of pyruvate kinase (PK) and lactate dehydrogenase (LDH). NADH conversion to NAD^+ was monitored by the decrease in absorbance at 340 nm (ε=6.22 cm^−1 mM^−1) using a Beckman DU650 spectrophotometer. A typical reaction solution contained 1 mM phosphoenolpyruvate, 0.24 mM NADH, 40 mM MgCl2, 5 mM DTT, poly(Glu4Tyr), ATP, 15 units/mL PK, 15 units/mL LDH in 100 mM HEPES, pH 7.5. ATP was varied from 0.5 to 2000 μM and poly(Glu4Tyr) was varied from 0.5 to 20 mg/mL. In addition, Met2 peptide (0-4 mM) could be used instead of poly(Glu4Tyr). Assays were initiated with the addition of 12 nM phosphorylated HGFR or 125 nM unphosphorylated HGFR. Inhibition studies were performed as described above with following exceptions: 0.075 mM ATP (PHGFR) and 0.375 mM ATP (HGFR). Data was fit to the equation for competitive inhibition by the method of nonlinear least squares (KaleidaGraph).
The kinetic consequences of the autophosphorylation were investigated. HGFR and pHGFR activities were evaluated in two distinct and complementing assay formats. […] NADH conversion to NAD^+ was monitored spectrophotometrically by the decrease in absorbance at 340 nm (ε=6.22 cm^−1 mM^−1). […]
(§2) Inhibition of HGFR and pHGFR were monitored in two distinct assay formats to insure valid results. The coupled, enzymatic format (CE) was a continuous assay that measured ADP production through the sequential action of two standard coupling enzymes (pyruvate kinase and lactate dehydrogenase). The radioactive assay format was a discontinuous assay that measured phospho-protein production directly. […]
(§3) The coupled enzymatic analysis of HGFR processing of ATP and poly(Glu4Tyr) were measured at 37° C. Variable substrate concentration was measured at a fixed saturating concentration of the other substrate.

[2] = target: T2, phosphorylated HGFR (pHGFR) (Homo sapiens, UniProt P08581); test: Coupled enzymatic (PK/LDH) kinase assay, phospho-HGFR
T2 construct: The cDNA corresponding to residues 1051-1349 of the HGFR kinase catalytic domain (HGFRkd) was cloned into a pFastBac plasmid; added N-terminal methionine (start codon of the NcoI site) (N); made in house; host or cells: Sf9 insect cells, recombinant baculovirus; then autophosphorylated in vitro with MgATP
T2 sequence (P08581 1051-1349): as above
Description: as §1
(§4) The kinetic consequences of the autophosphorylation were investigated. HGFR and pHGFR activities were evaluated in two distinct and complementing assay formats. […] A coupled, enzymatic assay format (CE format) was used to measure ADP production. HGFR-catalyzed production of ADP from ATP that accompanied phosphate transfer to the random copolymer poly(Glu4Tyr) was coupled to the oxidation of NADH through the sequential activities of pyruvate kinase (PK) and lactate dehydrogenase (LDH). NADH conversion to NAD^+ was monitored spectrophotometrically by the decrease in absorbance at 340 nm (ε=6.22 cm^−1 mM^−1). A second assay format was used to measure the production of [^32P]-labeled phospho-protein (dephosphorylated α-casein). Dephosphorylated α-casein is the substrate for HGFR […] in a glass fiber filterplate assay format. […]
as §2, §3

[3] = target: T3, pHGFR (Homo sapiens, UniProt P08581); test: Radioactive glass fiber filterplate assay (32P transfer to dephosphorylated α-casein)
T3 construct: The cDNA corresponding to residues 1051-1349 of the HGFR kinase catalytic domain (HGFRkd) was cloned into a pFastBac plasmid; added N-terminal methionine (start codon of the NcoI site) (N); made in house; host or cells: Sf9 insect cells, recombinant baculovirus; then autophosphorylated in vitro with MgATP
T3 sequence (P08581 1051-1349): as above
Description: as §4, §2

[4] = coupled enzymatic analysis, 37° C., other substrate fixed saturating

| Km [1, 4] [µM] | kcat, Unphosphorylated HGFR [1, 4] [s⁻¹] | kcat, Phospho-HGFR [2, 4] [s⁻¹] | Km ([2]; coupled enzymatic analysis, 37° C., other substrate fixed saturating, read-out: Km, Phospho-HGFR) [µM] | Km ([3]; radioactive filtermate format, dephosphorylated α-casein phosphoacceptor, read-out: Km for ATP (radioactive filtermate format)) [µM] | Ki ([1]; coupled enzymatic format, 0.375 mM ATP, data fit to equation for competitive inhibition, read-out: inhibition (HGFR/CE format)) [nM] | mechanism of pHGFR inhibition (double reciprocal analysis) ([2]; CE assay, ATP 25-3200 μM, Compound 1 0-1200 nM, pHGFR 25 nM, Met2 peptide 0.5 mM) | Ki ([2]; coupled enzymatic format, 0.075 mM ATP, data fit to equation for competitive inhibition, read-out: inhibition (pHGFR/CE format)) [nM] | Ki ([3]; radioactive filterplate format, 27.5 nM pHGFR, 0.075 mM ATP, RT, 30 min, read-out: inhibition (pHGFR/radioactive format)) [nM] | Structure (SMILES) |
| --- | --- | --- | --- | --- | --- | --- | --- | --- | --- |
| 373 ± 61 | 1.02 ± 0.013 | 31.3 ± 2.1 | 73.7 ± 2.8 | 78.6 ± 12.1 |  |  |  |  | Nc1ncnc2c1ncn2[C@@H]1O[C@H](COP(=O)(O)OP(=O)([O-])OP(=O)([O-])O)[C@@H](O)[C@H]1O.[Mg+2] [MgATP, ATP] |
|  |  |  |  |  | 500 ± 30 | ATP-competitive inhibitor | 381 ± 19 | 128 ± 17 | O=C1Nc2ccc3ncsc3c2/C1=C/Nc1ccc(S(=O)(=O)NCCOCCO)cc1 [Compound 1, 4-[[(Z)-(6,7-dihydro-7-oxo-8H-pyrrolo[2,3-g]benzothiazol-8-ylidene)methyl]amino]-N-[2-(2-hydroxyethoxy)ethyl]-(9CI)] |
